For the assay, the system named is mouse L1210 leukemia cells. Description: Formation of L1210 leukemia cell colonies in soft agar (cytostatic activity). It is filed as cell-based. Particulars: colonies > 60 μm, % of untreated control; for IC50: Mus musculus. Here is the method: The cytostatic activity of the compounds according to the invention have been tested using mouse L1210 leukemia cells. Use was made for this by the formation of L1210 leukemia cell colonies in agar plates. This method is used to detect the effect of the test substances on the growth behavior of the cells over 1 hour or over several generations. In this connection, with a cell cycle time of 10-12 hours, about 14 consecutive generations are observed in a 7-day duration of the test. In this test, the substances having cytostatic activity according to the invention bring about a reduction, compared with an untreated control sample, in the number of colonies which is to be observed.
Procedure for Determining the Formation of L1210 Leukemia Cell Colonies in Soft Agar
500 leukemia cells per plate were incubated with various concentrations of the test substance at 37° C. for 1 hour. These cells were then washed twice with McCoy 5A medium, 0.3% agar was added, and finally the mixture was poured into Petri dishes. Controls were incubated only with fresh medium. In place of the incubation for one hour, in some cases various concentrations and test substances were mixed with the upper agar layer in order in this way to achieve continuous exposure of the cells throughout the incubation time. After the agar had solidified, the plates were incubated in an incubator at 37° C. for 7 days (5% by volume CO2, 95% relative atmospheric humidity). Thereafter the number of colonies with a diameter of more than 60 μm which had formed was counted. The results have been stated as the number of colonies in treated agar plates as a percentage of the untreated control. The dose-effect graph obtained in this way was used to determine the IC50 as a measure of the activity of the substance. The results for the compounds described here are compiled in Table 1 which follows, comparing with adriamycin.

[1] abbreviates: L1210, 168 h, read-out: Continuous incubation IC50, continuous exposure, test substance mixed with upper agar layer, 7 days, 37° C.
[2] abbreviates: L1210, read-out: 1 h incubation IC50, 1 hour incubation with test substance at 37° C., then washed, 7 days in agar.
The mark [3] stands for this setting: L1210, 168 h, continuous exposure, test substance mixed with upper agar layer, 7 days, 37° C., read-out: Continuous incubation IC50.
Where [4] appears, read: L1210, 1 hour incubation with test substance at 37° C., then washed, 7 days in agar, read-out: 1 h incubation IC50.

Structures are written as SMILES. Converted amounts (≈) assume the structure as drawn. Structures can show the parent of a compound that is named as a salt. Where two headings read alike, the source gives them in different places. Some results are limits rather than exact numbers.

Turning to `CC[C@@]1(O)C[C@H](O[C@H]2C[C@H](NC)[C@H](O)[C@H](C)O2)c2c(O)c3c(c(O)c2[C@H]1O)C(=O)c1cccc(O)c1C3=O` [compound 1, 7-O-(3'-N-Methyl-α-L-daunosaminyl)-β-rhodomycinone], the half-maximal inhibitory concentration (IC50) (commonly the concentration that inhibits the measured activity by half) by setting is: under setting [1], 0.02 µg/mL (≈ 0.0378 µM); under setting [2], 0.038 µg/mL (≈ 0.0718 µM).
For the compound `CCN(C)[C@H]1C[C@H](O[C@H]2C[C@](O)(CC)[C@H](O)c3c(O)c4c(c(O)c32)C(=O)c2c(O)cccc2C4=O)O[C@@H](C)[C@H]1O` [compound 11], the IC50 is, setting by setting: under setting [3], 0.007 µg/mL (≈ 0.0126 µM); under setting [4], 0.08 µg/mL (≈ 0.143 µM).
Consider `CC[C@@]1(O)C[C@H](O[C@H]2C[C@H](N(C)Cc3ccc(Cl)cc3)[C@H](O)[C@H](C)O2)c2c(O)c3c(c(O)c2[C@H]1O)C(=O)c1cccc(O)c1C3=O` [compound 22, 7-O-(3'-N-(4-Chlorobenzyl)-3'-N-methyl-α-L-daunosaminyl)-β-rhodomycinone], for which the IC50 is, setting by setting: under setting [3], 0.026 µg/mL (≈ 0.0397 µM); under setting [4], 0.95 µg/mL (≈ 1.45 µM).
For `CC[C@@]1(O)C[C@H](O[C@H]2C[C@H](N(C)Cc3ccc(Br)cc3)[C@H](O)[C@H](C)O2)c2c(O)c3c(c(O)c2[C@H]1O)C(=O)c1cccc(O)c1C3=O` [compound 23, 7-O-(3'-N-(4-Bromobenzyl)-3'-N-methyl-α-L-daunosaminyl)-β-rhodomycinone] the same measures were 0.08 µg/mL (≈ 0.115 µM) and > 1 µg/mL.
Regarding `CC[C@@]1(O)C[C@H](O[C@H]2C[C@H](N(C)Cc3ccccc3)[C@H](O)[C@H](C)O2)c2c(O)c3c(c(O)c2[C@H]1O[C@H]1C[C@H](N(C)Cc2ccccc2)[C@H](O)[C@H](C)O1)C(=O)c1cccc(O)c1C3=O` [compound 28, 7,10-O-bis-(3'-N-Benzyl-3'-N-methyl-α-L-daunosaminyl)-β-rhodomycinone], the IC50 reads like this: under setting [3], 0.0065 µg/mL (≈ 0.00762 µM); under setting [4], 0.12 µg/mL (≈ 0.141 µM).
For `CCCCCN(C)[C@H]1C[C@H](O[C@H]2C[C@](O)(CC)[C@H](O[C@H]3C[C@H](N(C)CCCCC)[C@H](O)[C@H](C)O3)c3c(O)c4c(c(O)c32)C(=O)c2c(O)cccc2C4=O)O[C@@H](C)[C@H]1O` [compound 29, 7,10-O-bis-(3'-N-Methyl-3'-N-pentyl-α-L-daunosaminyl)-β-rhodomycinone] the same measures were 0.1 µg/mL (≈ 0.123 µM) and 0.6 µg/mL (≈ 0.738 µM).
For `CC[C@@]1(O)C[C@H](O[C@H]2C[C@H](N(C)C(C)=O)[C@H](O)[C@H](C)O2)c2c(O)c3c(c(O)c2[C@H]1C(=O)OC)C(=O)c1c(O)ccc(O)c1C3=O` [compound 14, 7-O-(3'-N-Acetyl-3'-N-methyl-α-L-daunosaminyl)-ε-isorhodomycinone] the same measures were 0.5 µg/mL (≈ 0.794 µM) and > 1 µg/mL.
Turning to `CC[C@@]1(O)C[C@H](O[C@H]2C[C@H](NC)[C@H](O)[C@H](C)O2)c2c(O)c3c(c(O)c2[C@H]1O[C@H]1C[C@H](NC)[C@H](O)[C@H](C)O1)C(=O)c1cccc(O)c1C3=O` [compound 15, 7,10-O-bis-(3'-N-Methyl-α-L-daunosaminyl)-β-rhodomycinone], the IC50 was > 1 µg/mL under setting [3] and > 1 µg/mL under setting [4].
On to `CC[C@@]1(O)C[C@H](O[C@H]2C[C@H](N(C)CC#N)[C@H](O)[C@H](C)O2)c2c(O)c3c(c(O)c2[C@H]1O)C(=O)c1c(O)ccc(O)c1C3=O` [compound 8, 7-O-(3'-N-Cyanomethyl-3'-N-methyl-α-L-daunosaminyl)-β-isorhodomycinone], for which the IC50 runs as follows: under setting [1], 0.042 µg/mL (≈ 0.0718 µM); under setting [2], 0.2 µg/mL (≈ 0.342 µM).
For `CC[C@@]1(O)C[C@H](O[C@H]2C[C@H](NC)[C@H](O)[C@H](C)O2)c2c(O)c3c(c(O)c2[C@H]1O)C(=O)c1c(O)ccc(O)c1C3=O` [compound 3, 7-O-(3'-N-Methyl-α-L-daunosaminyl)-β-isorhodomycinone], the IC50 worked out at 0.11 µg/mL (≈ 0.202 µM) under setting [3] and 0.13 µg/mL (≈ 0.238 µM) under setting [4].
The corresponding values for `CCCCCCN(C)[C@H]1C[C@H](O[C@H]2C[C@](O)(CC)[C@H](O)c3c(O)c4c(c(O)c32)C(=O)c2c(O)cccc2C4=O)O[C@@H](C)[C@H]1O` [compound 19, 7-O-(3'-N-Hexyl-3'-N-methyl-α-L-daunosaminyl)-β-rhodomycinone] are 0.13 µg/mL (≈ 0.212 µM) and 1.2 µg/mL (≈ 1.96 µM).
The corresponding values for `CCCCCN(C)[C@H]1C[C@H](O[C@H]2C[C@](O)(CC)[C@H](O)c3c(O)c4c(c(O)c32)C(=O)c2c(O)cccc2C4=O)O[C@@H](C)[C@H]1O` [compound 18, 7-O-(3'-N-Methyl-3'-N-pentyl-α-L-daunosaminyl)-β-rhodomycinone] are 0.075 µg/mL (≈ 0.125 µM) and 0.48 µg/mL (≈ 0.8 µM).
`CN[C@H]1C[C@H](O[C@H]2C[C@](O)(C(C)O)Cc3c(O)c4c(c(O)c32)C(=O)c2c(OC)cccc2C4=O)O[C@@H](C)[C@H]1O` (some centres unmarked) [compound 32, 3'-N-Methyl-13-dihydrodaunorubicin]: the IC50 reads like this: under setting [3], 0.5 µg/mL (≈ 0.92 µM); under setting [4], 1.3 µg/mL (≈ 2.39 µM).
`CC[C@@]1(O)C[C@H](O[C@H]2C[C@H](N(C)CC#N)[C@H](O)[C@H](C)O2)c2c(O)c3c(c(O)c2[C@H]1O)C(=O)c1cccc(O)c1C3=O` [compound 7, 7-O-(3'-N-Cyanomethyl-3'-N-methyl-α-L-daunosaminyl)-β-rhodomycinone]: the IC50 by setting is: under setting [1], 0.013 µg/mL (≈ 0.0229 µM); under setting [2], 0.021 µg/mL (≈ 0.0369 µM).
Take `CCCCN(C)[C@H]1C[C@H](O[C@H]2C[C@](O)(CC)[C@H](O)c3c(O)c4c(c(O)c32)C(=O)c2c(O)cccc2C4=O)O[C@@H](C)[C@H]1O` [compound 13, 7-O-(3'-N-Butyl-3'-N-methyl-α-L-daunosaminyl)-β-rhodomycinone]: the IC50 worked out at 0.018 µg/mL (≈ 0.0307 µM) under setting [3] and 0.125 µg/mL (≈ 0.213 µM) under setting [4].
Take `CC[C@@]1(O)C[C@H](O[C@H]2C[C@H](N(C)Cc3ccc([N+](=O)[O-])cc3)[C@H](O)[C@H](C)O2)c2c(O)c3c(c(O)c2[C@H]1O)C(=O)c1cccc(O)c1C3=O` [compound 24, 7-O-(3'-N-(4-Nitrobenzyl)-3'-N-methyl-α-L-daunosaminyl)-β-rhodomycinone]: the half-maximal inhibitory concentration (IC50) reads like this: under setting [1], 0.16 µg/mL (≈ 0.241 µM); under setting [2], 2.5 µg/mL (≈ 3.76 µM).
For `CCCN(C)[C@H]1C[C@H](O[C@H]2C[C@](O)(CC)[C@H](O)c3c(O)c4c(c(O)c32)C(=O)c2c(O)cccc2C4=O)O[C@@H](C)[C@H]1O` [compound 12, 7-O-(3'-N-Methyl-3'-N-propyl-α-L-daunosaminyl)-β-rhodomycinone], the IC50 under setting [3] came to 0.026 µg/mL (≈ 0.0455 µM) and the IC50 under setting [4] came out at 0.1 µg/mL (≈ 0.175 µM).
Regarding `CC[C@@]1(O)C[C@H](O[C@H]2C[C@H](NC)[C@H](O)[C@H](C)O2)c2c(O)c3c(c(O)c2[C@H]1O)C(=O)c1cccc(O)c1C3=O` [compound 2, 7-O-(3'-N-Methyl-α-L-daunosaminyl)-β-rhodomycinone hydrochloride], where the note is “1 hour incubation with test substance at 37° C., then washed, 7 days in agar, hydrochloride”, the “1 h incubation IC50” value turned out to be 0.026 µg/mL.
As to `CC[C@@]1(O)C[C@H](O[C@H]2C[C@H](N(C)C=O)[C@H](O)[C@H](C)O2)c2c(O)c3c(c(O)c2[C@H]1O)C(=O)c1cccc(O)c1C3=O` [compound 6, 7-O-(3'-N-Formyl-3'-N-methyl-α-L-daunosaminyl)-β-rhodomycinone], the IC50 under setting [1] came out at 0.044 µg/mL (≈ 0.0789 µM) and the IC50 under setting [2] is 0.15 µg/mL (≈ 0.269 µM).
Turning to `CC[C@@]1(O)C[C@H](O[C@H]2C[C@H](NC)[C@H](O)[C@H](C)O2)c2c(O)c3c(c(O)c2[C@H]1C(=O)OC)C(=O)c1c(O)ccc(O)c1C3=O` [compound 5, 7-O-(3'-N-Methyl-α-L-daunosaminyl)-ε-isorhodomycinone], the IC50 runs as follows: under setting [3], 0.28 µg/mL (≈ 0.477 µM); under setting [4], > 1 µg/mL.
Consider `CC[C@@]1(O)C[C@H](O[C@H]2C[C@H](N(C)Cc3ccc(C#N)cc3)[C@H](O)[C@H](C)O2)c2c(O)c3c(c(O)c2[C@H]1O)C(=O)c1cccc(O)c1C3=O` [compound 25, 7-O-(3'-N-(4-Cyanobenzyl)-3'-N-methyl-α-L-daunosaminyl)-β-rhodomycinone], for which the IC50 is, setting by setting: under setting [1], 0.11 µg/mL (≈ 0.171 µM); under setting [2], > 1 µg/mL.
`CC[C@@]1(O)C[C@H](O[C@H]2C[C@H](N(C)Cc3ccccc3)[C@H](O)[C@H](C)O2)c2c(O)c3c(c(O)c2[C@H]1O)C(=O)c1cccc(O)c1C3=O` [compound 9, 7-O-(3'-N-Benzyl-3'-N-methyl-α-L-daunosaminyl)-β-rhodomycinone]: the IC50 runs as follows: under setting [3], 0.028 µg/mL (≈ 0.0452 µM); under setting [4], 0.32 µg/mL (≈ 0.516 µM).
The corresponding values for `CCCCCCCN(C)[C@H]1C[C@H](O[C@H]2C[C@](O)(CC)[C@H](O)c3c(O)c4c(c(O)c32)C(=O)c2c(O)cccc2C4=O)O[C@@H](C)[C@H]1O` [compound 20, 7-O-(3'-N-Heptyl-3'-N-methyl-α-L-daunosaminyl)-β-rhodomycinone] are 0.38 µg/mL (≈ 0.605 µM) and 1.9 µg/mL (≈ 3.03 µM).
As to `CCCCCCCCN(C)[C@H]1C[C@H](O[C@H]2C[C@](O)(CC)[C@H](O)c3c(O)c4c(c(O)c32)C(=O)c2c(O)cccc2C4=O)O[C@@H](C)[C@H]1O` [compound 21, 7-O-(3'-N-Octyl-3'-N-methyl-α-L-daunosaminyl)-β-rhodomycinone], the IC50 reads like this: under setting [3], 0.46 µg/mL (≈ 0.717 µM); under setting [4], 2.8 µg/mL (≈ 4.36 µM).

(Values after patent publication US4948880A, “Anthracycline derivatives having cytostatic activity” (Behringwerke Aktiengesellschaft, priority 1986, dated 1990).)
